In patent publication US20080306268A1, “Crystalline clopidogrel hydrobromide and processes for preparation thereof” (Teva Pharmaceuticals USA, Inc. for Barbados, priority 2004, published 2008):
Structures can show the parent of a compound that is named as a salt.

Key:
[1] = opened beaker, room temperature, 4 days
Procedure: Form I may also be prepared by exposing a hygroscopic crystalline clopidogrel hydrobromide to air, preferably for at least about 24 hours. In a preferred embodiment, the clopidogrel hydrobromide exposed is Form II, discussed below.

[2] = pure crystalline hydrate, purity at least about 99% by HPLC
platelet aggregation = settings: 75 mg base equivalent versus 325 mg aspirin; cited from earlier work
[3] = compared with aspirin; cited from earlier work

In the case of COC(=O)[C@H](c1ccccc1Cl)N1CCc2sccc2C1 [Form II, clopidogrel hydrobromide], the “crystalline form after exposure to air” value [1] is reported as “giving clopidogrel hydrobromide form I”.

In the case of COC(=O)[C@H](c1ccccc1Cl)N1CCc2sccc2C1 [clopidogrel hydrobromide hydrate], the hygroscopicity [2] is reported as “only minor hygroscopicity”.

In the case of COC(=O)[C@H](c1ccccc1Cl)N1CCc2sccc2C1 [clopidogrel, methyl (+)-(S)-∝-(o-chlorophenyl)-6,7-dihydrothieno[3,2-c]pyridine-5(4H)-acetate], the “effectiveness in blocking platelet aggregation versus aspirin” value (platelet aggregation) is given as “more effective in blocking platelet aggregation than aspirin” and the “gastrointestinal bleeding versus aspirin” value [3] is given as “much less gastrointestinal bleeding than aspirin”.
